Assays:
Assay type in all cases: protein-complex assay
Ecdysone receptor [1] = biological target: T1, Ecdysone receptor (Lucilia cuprina, UniProt O18531+Q962I5); test: Binding affinity to Lucilia cuprina EcR
T1 sequence (O18531 whole entry): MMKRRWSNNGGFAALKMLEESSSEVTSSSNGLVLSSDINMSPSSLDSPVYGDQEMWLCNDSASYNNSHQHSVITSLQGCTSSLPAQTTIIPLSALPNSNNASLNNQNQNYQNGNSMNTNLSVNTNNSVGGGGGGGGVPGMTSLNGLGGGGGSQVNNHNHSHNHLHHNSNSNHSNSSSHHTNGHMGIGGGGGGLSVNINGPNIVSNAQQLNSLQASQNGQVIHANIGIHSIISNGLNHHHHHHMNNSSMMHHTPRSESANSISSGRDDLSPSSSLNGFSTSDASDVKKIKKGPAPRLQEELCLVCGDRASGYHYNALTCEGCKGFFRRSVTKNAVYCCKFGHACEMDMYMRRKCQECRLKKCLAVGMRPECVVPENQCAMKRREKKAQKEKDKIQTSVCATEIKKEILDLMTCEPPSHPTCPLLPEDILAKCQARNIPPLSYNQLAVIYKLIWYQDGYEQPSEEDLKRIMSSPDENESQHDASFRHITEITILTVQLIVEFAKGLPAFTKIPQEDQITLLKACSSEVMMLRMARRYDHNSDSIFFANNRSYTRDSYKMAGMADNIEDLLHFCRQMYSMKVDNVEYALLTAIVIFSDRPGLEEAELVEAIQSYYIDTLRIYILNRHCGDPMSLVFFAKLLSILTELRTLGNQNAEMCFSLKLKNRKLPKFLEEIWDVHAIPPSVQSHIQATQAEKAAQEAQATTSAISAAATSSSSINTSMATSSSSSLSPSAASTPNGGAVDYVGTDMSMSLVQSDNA
T1 sequence (Q962I5 whole entry): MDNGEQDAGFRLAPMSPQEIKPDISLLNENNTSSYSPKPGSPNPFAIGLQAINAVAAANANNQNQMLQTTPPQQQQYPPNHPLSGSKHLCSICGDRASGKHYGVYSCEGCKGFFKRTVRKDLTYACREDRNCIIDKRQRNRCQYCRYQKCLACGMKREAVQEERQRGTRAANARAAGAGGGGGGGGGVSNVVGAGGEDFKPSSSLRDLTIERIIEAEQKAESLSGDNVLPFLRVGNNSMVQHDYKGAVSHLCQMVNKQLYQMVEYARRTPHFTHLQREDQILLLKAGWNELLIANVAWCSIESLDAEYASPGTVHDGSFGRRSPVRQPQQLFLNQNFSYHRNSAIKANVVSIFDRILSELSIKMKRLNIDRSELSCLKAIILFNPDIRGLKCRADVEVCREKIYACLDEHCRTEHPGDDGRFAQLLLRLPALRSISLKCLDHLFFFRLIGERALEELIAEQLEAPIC

Ecdysone receptor [2] = biological target: T2, Ecdysone receptor (Myzus persicae, UniProt A3EZJ9+A3EZK0); test: Binding affinity to Myzus persicae EcR (green peach aphid)
T2 sequence (A3EZJ9 whole entry): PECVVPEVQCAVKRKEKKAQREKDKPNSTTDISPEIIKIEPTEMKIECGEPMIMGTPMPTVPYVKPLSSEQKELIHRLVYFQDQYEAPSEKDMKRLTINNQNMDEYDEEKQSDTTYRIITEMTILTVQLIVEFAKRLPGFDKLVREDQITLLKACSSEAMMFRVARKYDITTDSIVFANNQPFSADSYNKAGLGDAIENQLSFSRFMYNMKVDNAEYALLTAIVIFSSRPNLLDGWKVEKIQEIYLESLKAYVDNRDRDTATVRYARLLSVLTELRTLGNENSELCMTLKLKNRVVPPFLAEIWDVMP
T2 sequence (A3EZK0 whole entry): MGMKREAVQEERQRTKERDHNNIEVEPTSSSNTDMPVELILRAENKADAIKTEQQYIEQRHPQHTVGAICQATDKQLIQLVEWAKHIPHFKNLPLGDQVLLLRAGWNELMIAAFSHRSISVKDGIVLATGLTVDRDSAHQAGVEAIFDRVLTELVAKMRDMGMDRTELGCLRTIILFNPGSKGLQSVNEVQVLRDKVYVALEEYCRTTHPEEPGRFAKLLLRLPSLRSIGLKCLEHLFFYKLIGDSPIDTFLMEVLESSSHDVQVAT

Ecdysone receptor [3] = biological target: T3, Ecdysone receptor (Locusta migratoria, UniProt O97095+Q6V7U7); test: Binding affinity to Locusta migratoria ecdysone receptor (EcR)
T3 sequence (O97095 whole entry): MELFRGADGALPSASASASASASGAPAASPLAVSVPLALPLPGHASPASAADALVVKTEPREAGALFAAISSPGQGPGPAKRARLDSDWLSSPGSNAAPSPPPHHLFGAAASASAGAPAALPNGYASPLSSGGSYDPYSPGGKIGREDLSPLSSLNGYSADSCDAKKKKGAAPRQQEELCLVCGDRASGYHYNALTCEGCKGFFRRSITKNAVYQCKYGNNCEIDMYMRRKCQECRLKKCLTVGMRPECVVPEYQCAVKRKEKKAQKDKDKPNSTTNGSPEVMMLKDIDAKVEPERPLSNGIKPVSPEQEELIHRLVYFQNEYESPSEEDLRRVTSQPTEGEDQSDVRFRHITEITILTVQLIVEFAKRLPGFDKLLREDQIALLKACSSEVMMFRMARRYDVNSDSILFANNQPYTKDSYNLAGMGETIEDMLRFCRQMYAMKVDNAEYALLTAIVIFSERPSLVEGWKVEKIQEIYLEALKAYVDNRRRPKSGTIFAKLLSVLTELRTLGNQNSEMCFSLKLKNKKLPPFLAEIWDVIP
T3 sequence (Q6V7U7 whole entry): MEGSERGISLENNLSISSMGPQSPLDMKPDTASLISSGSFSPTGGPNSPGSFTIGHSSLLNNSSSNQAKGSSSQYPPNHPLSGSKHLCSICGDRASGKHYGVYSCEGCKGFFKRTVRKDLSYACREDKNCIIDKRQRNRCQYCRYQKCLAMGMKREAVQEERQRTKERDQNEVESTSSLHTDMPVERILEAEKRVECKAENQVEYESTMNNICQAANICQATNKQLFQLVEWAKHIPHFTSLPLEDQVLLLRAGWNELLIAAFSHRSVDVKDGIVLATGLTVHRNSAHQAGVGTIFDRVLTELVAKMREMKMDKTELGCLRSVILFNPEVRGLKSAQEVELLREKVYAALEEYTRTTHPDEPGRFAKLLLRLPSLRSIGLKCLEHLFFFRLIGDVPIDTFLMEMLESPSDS

CCc1ccc(C(=O)NN(C(=O)c2cc(C)cc(C)c2)C(C)(C)C)cc1 [TEBUFENOZIDE]
Ki (Ecdysone receptor [1]): 0.158 µM | Ki (Ecdysone receptor [2]): > 126 µM | Ki (Ecdysone receptor [3]): 100 µM

— ChEMBL document CHEMBL3045439, “Isoforms of the heteropteran Nezara viridula ecdysone receptor: protein characterisation, RH5992 insecticide binding and homology modelling” (Pest Manag Sci, 2011)
